“Also recorded” adds a separate entry of the source.
Legend:
Solubility in solvents = assay type: physicochemical; conditions: solvents as named in the value
[1] = system: tumor cells derived from human carcinoma of the nasopharynx (KB cells); assay: KB cell assay: cytotoxicity, cell count (alive, dead) after 48 h incubation; assay type: cell-based; conditions: for Cell count after incubation, dead / Cell count after incubation, alive: cell count before incubation = 100, Table 3; for Cell count after incubation, dead: control 0; for Cell count after incubation, alive: control 200
Protocol: The plant is subjected to extraction in various solvents having different polarities (i.e. dielectric constants) at room temperature for a period of from 1 to 10 days. By room temperature, it is meant from about 20° C. to about 25° C. The extract-containing solvents are each tested for their biological activity. As a measure of biological activity, the cytotoxicity of the extracts against tumor cells derived from human carcinoma of the nasopharynx (KB cells) is measured. Those extracts which show the capability of killing KB cells are fractionated to yield the compounds of the present invention.
A sample of cells was taken from a stock supply furnished by a well known commercial laboratory. The primary culture was Minimal Essential Medium (MEM), Flo Laboratories, 10% fetal calf serum. Trypsinization was conducted with 0.2% trypsin in isotonic NaCl. The cells were counted with 0.1% Tripan Blue. The cells were subcultured in a 5 to 1 split in microtiter plates at 2×10^5 cells per well. The volume of culture placed in each well was 1 ml. The cells were counted at three locations before the addition of the extract to yield an average cell count.
Each of the extracts to be tested was added to the cells at a specific concentration as an ethanolic solution. The cells were incubated at 37° C. for 48 hours. Thereafter, the cells were again counted at three locations to provide an average cell count.
As a control, a cell sample was incubated for the same period in culture medium and without the addition of any plant extract.
Each of the extracts obtained above was tested for its effect on KB cells. The cell culture assay protocol described above was used.

Structure (SMILES) | Solubility (in words) (Solubility in solvents) | Cell count after incubation, dead ([1]; 10 μg/ml) | Cell count after incubation, alive ([1]; 10 μg/ml) | Cell count after incubation, dead ([1]; 100 μg/ml) | Cell count after incubation, alive ([1]; 100 μg/ml) | activity against KB cells / antitumor activity (in words) [1]
CCC1CCCCCCCCCCCCCCCCCCC(=O)OC[C@H]2O[C@@H](O1)[C@H](O)[C@@H](OC(C)=O)[C@@H]2O (stereo partly shown) [Compound II] | soluble in CH2 Cl2 and benzene but insoluble in methanol and ether; also recorded: Insoluble in methanol, ethyl ether | 0.5 | 104.5 | 0 | 0 | active; also recorded: possess antitumor properties
CCC(O)CCCCCCCCCCCCCCCCCCC(=O)OC (stereo not shown) [Example 5, 20-hydroxydocosanoic acid methyl ester] | soluble in n-hexane, benzene and chloroform but insoluble in methanol and acetone | – | – | – | – | –
CCC1CCCCCCCCCCCCCCCCCCC(=O)OC[C@H]2O[C@@H](O1)[C@H](OC(C)=O)[C@@H](O)[C@@H]2O (stereo partly shown) [Compound I] | Soluble in CHCl3, methanol; also recorded: Sparingly soluble in acetyl ethyl ether and acetone; also recorded: Insoluble in ethyl ether and petroleum ether | 0 | 15 | 0 | 0 | active; also recorded: possess antitumor properties
